The values that follow come from article PMC2970651 (Bioorganic & medicinal chemistry, 2010).

In data set [1] the test system is maximal electroshock seizure (generalized tonic-clonic seizures). Description: Maximal Electroshock Seizure. The data set is classed as in vivo, mice. The following applies: i.p.; for protection in the MES test in mice at 100 mg/kg (in words) / MES protection, animals protected/animals tested at 0.5 h: mice; for MES protection, animals protected/animals tested at 0.5 h: 100 mg/kg (stated for 19 and 20). Background: Protection in the maximal electroshock model is a classic sign of anticonvulsant action.

Data set [2] concerns the target T1, human Nav1.2 (Homo sapiens, UniProt Q99250). The data set is classed as cell-based.
A further data set concerns mice. Description: Acute toxicity, minimal motor impairment. The data set is classed as in vivo. The settings on record: i.p.
The subject of data set [3] is maximal electroshock seizure (generalized tonic-clonic seizures). Kind of data set: MES test, oral administration to rats. Format: in vivo. The settings on record: 30 mg/kg.
Data set [4] addresses T1, human Nav1.2. The settings on record: cited from earlier work.

Read-outs that look alike come from different tables or passages of the source.

T1 sequence (Q99250 whole entry): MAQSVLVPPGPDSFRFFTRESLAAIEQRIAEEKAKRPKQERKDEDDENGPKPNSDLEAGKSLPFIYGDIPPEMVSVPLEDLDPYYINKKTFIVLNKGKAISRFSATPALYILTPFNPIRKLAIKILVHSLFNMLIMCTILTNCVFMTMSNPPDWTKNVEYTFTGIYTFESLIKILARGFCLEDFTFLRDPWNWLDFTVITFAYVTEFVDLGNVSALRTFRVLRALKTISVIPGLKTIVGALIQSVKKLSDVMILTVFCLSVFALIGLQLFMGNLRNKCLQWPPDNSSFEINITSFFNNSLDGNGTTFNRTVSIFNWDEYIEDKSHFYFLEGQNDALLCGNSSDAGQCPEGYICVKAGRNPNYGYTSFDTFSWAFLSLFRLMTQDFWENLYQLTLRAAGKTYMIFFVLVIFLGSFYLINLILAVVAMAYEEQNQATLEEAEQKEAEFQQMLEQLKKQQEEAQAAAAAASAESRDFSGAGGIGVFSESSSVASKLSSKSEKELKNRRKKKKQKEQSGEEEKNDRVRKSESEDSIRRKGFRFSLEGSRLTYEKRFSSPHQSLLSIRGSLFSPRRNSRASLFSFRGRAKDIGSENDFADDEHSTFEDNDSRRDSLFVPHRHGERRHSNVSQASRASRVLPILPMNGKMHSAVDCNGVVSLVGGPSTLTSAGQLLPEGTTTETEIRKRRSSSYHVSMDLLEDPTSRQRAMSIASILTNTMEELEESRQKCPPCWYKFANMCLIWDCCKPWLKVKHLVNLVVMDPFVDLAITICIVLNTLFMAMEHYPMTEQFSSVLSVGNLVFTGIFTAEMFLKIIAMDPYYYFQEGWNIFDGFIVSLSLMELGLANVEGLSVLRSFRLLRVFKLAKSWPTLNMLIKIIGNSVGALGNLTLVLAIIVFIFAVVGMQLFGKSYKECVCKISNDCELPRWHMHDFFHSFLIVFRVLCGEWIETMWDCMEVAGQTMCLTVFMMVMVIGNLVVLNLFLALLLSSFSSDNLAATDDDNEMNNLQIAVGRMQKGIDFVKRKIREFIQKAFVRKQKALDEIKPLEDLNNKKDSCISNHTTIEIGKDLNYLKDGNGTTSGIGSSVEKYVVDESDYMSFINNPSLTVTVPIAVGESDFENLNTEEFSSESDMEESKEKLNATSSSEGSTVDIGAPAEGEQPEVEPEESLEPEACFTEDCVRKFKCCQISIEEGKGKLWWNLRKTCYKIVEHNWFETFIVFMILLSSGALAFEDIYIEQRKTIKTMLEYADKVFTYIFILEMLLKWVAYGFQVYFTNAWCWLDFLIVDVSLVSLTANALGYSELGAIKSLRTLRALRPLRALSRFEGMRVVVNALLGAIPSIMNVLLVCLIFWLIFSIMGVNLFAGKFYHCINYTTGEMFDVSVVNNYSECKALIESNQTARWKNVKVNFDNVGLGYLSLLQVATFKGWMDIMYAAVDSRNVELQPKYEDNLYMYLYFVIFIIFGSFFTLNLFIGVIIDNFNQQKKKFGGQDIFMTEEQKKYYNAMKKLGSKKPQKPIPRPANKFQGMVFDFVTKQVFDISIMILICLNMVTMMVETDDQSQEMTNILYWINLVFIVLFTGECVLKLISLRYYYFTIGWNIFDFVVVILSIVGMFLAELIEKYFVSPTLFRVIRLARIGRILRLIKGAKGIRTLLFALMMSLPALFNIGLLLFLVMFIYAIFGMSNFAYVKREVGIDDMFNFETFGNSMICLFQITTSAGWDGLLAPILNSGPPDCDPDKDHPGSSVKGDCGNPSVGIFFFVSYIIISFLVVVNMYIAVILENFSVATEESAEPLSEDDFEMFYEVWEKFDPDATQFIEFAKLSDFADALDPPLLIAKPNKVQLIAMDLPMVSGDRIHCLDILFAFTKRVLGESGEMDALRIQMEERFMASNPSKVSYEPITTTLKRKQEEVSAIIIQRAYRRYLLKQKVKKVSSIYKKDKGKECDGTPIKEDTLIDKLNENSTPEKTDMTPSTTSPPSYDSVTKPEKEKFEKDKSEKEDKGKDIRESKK

`Clc1cccc(-c2nc(-c3ccccc3)c[nH]2)c1` [Compound 12]: the “protection in the MES test in mice at 100 mg/kg (in words)” value (“protection in the MES test in mice” below) in data set [1] was “Some protection”.

`COc1ccc(-c2nc(-c3ccccc3)c[nH]2)cc1` [Compound 13]: the “action on hNaV1.2 current at 10 μM” value on human Nav1.2 [2] is listed as 30.1%.

Regarding `O=[N+]([O-])c1ccc(-c2nc(-c3ccccc3)c[nH]2)cc1` [Compound 15], in data set [1], the “protection in the MES test in mice” value is “Some protection”.

As to `O=[N+]([O-])c1cccc(-c2nc(-c3ccccc3)c[nH]2)c1` [Compound 16], the “MES protection, animals protected/animals tested at 0.5 h” value in data set [1] is on record as 2/3.

For `FC(F)(F)c1ccc(-c2nc(-c3ccccc3)c[nH]2)cc1` [Compound 17], the “MES protection, animals protected/animals tested at 0.25 h” value in data set [1] (0.25 h, text says rats, Supplementary Data Table 1) was 2/3. The “dose up to which no toxicity was observed” value with mice is 500 mg/kg. In addition, at human Nav1.2 [2], the “action on hNaV1.2 current at 10 μM” value worked out at 22.7%. Moreover, the “fold greater potency for hNav1.2 than phenytoin” value at human Nav1.2 [2] (ratio of IC50 values) amounted to 4 fold.

As to `Clc1ccc(-c2c[nH]c(-c3ccccc3)n2)cc1` [Compound 19], in data set [1], the “MES protection, animals protected/animals tested at 0.5 h” value is on record as 3/3. Moreover, in data set [3], the “ability to prevent seizure spread in the MES test after oral administration (in words)” value (shortened to “ability to prevent seizure spread”) was “not able to prevent seizure spread”.

In the case of `Clc1cccc(-c2c[nH]c(-c3ccccc3)n2)c1` [Compound 20], the “MES protection, animals protected/animals tested at 0.5 h” value in data set [1] was 3/3. The “dose up to which no toxicity was observed” value with mice is listed as 500 mg/kg. Also, the “action on hNaV1.2 current at 10 μM” value at human Nav1.2 [2] is on record as 16.8%.

For `COc1ccc(-c2c[nH]c(-c3ccccc3)n2)cc1` [Compound 21], the “ability to prevent seizure spread” value in data set [3] was “not able to prevent seizure spread”.

As for `COc1cccc(-c2c[nH]c(-c3ccccc3)n2)c1` [Compound 22], the “ability to prevent seizure spread” value in data set [3] is listed as “not able to prevent seizure spread”.

For `O=[N+]([O-])c1ccc(-c2c[nH]c(-c3ccccc3)n2)cc1` [Compound 23], the “protection in the MES test in mice” value in data set [1] is recorded as “Some protection”.

Turning to `O=[N+]([O-])c1cccc(-c2c[nH]c(-c3ccccc3)n2)c1` [Compound 24], the “MES protection, animals protected/animals tested at 0.5 h” value in data set [1] is listed as 2/3. Also, the “ability to prevent seizure spread” value in data set [3] was “not able to prevent seizure spread”.

As for `FC(F)(F)c1ccc(-c2c[nH]c(-c3ccccc3)n2)cc1` [Compound 25], the “protection in the MES test in mice” value in data set [1] is “Some protection”.

For the compound `FC(F)(F)c1cccc(-c2c[nH]c(-c3ccccc3)n2)c1` [Compound 26], in data set [1], the “protection in the MES test in mice” value is on record as “Some protection”.

For `FC(F)(F)c1cccc(-c2c[nH]c(-c3cccc(C(F)(F)F)c3)n2)c1` [Compound 29], the “protection in the MES test in mice” value in data set [1] was “Some protection”.

`O=C1NC(=O)C(c2ccccc2)(c2ccccc2)N1` [Phenytoin]: on human Nav1.2 [4], the “action on hNaV1.2 current at 10 μM” value was 10.6%.
